Source: patent publication US11478496B2, “Treatments of prostate cancer” (THE FLORIDA INTERNATIONAL UNIVERSITY BOARD OF TRUSTEES, priority 2020, dated 2022)

Columns and labels:
[1] = system: BER reconstituted with purified Pol β, FEN1, and LIG I; assay: Secondary gel-based BER assay reconstituted with purified core BER enzymes; type: biochemical; settings: 10 μM compound, THF substrate
Method: The secondary screening assay was performed as described below in the “Materials and Methods” section. Lane 1 represents the substrate only. Lane 2 indicates the reaction mixture with 5 nM APE1. Lanes 3 and 4 correspond to the reaction mixture with 5 nM APE1, 10 nM pol β, 10 nM FEN1 and 20 nM LIG I in the absence and presence of dimethylsulfoxide (DMSO). Lanes 5 through 19 correspond to the reaction mixture with 5 nM APE1, 10 nM pol β, 10 nM FEN1 and 20 nM LIG I in the presence of indicated compounds. The experiments were repeated at least three times. A representative gel is illustrated.
The hit compounds were subject to secondary assays to determine their ability to reduce the BER capacity when reconstituted with purified core BER enzymes, as well as their inhibitory effects on individual BER enzymes including pol FEN1 and LIG I. The effect of hit compounds on BER capacity and BER enzymes was examined using a denaturing sequencing gel-based assay. 10 μM hit compounds were incubated with 10 nM pol β, 10 nM FEN1 and 20 nM LIG I in BER reaction buffer containing 50 mM Tris-HCl (pH 7.5), 50 mM KCl, 0.1 mM EDTA, 0.1 mg/ml bovine serum albumin, and 0.01% Nonidet P-40 in the presence of 5 mM Mg^2+ and 2 mM ATP. The compounds were initially preincubated with a BER enzyme at varying concentrations for 1 h with rotation. This was followed by the addition of 25 nM ^32P-labeled substrate containing an abasic site, which was precut with 25 or 50 nM APEI. The reaction mixture (20 μL) was incubated at 37° C. for 30 min, and the reaction was terminated by 50 mM EDTA. Substrates, products, and unrepaired BER intermediates were separated by 15% urea-denaturing sequencing gel and detected by a Pharos FX Plus PhosphorImager (Bio-Rad, Hercules, Calif.).
Among the 26 identified compounds, nine were DNA intercalators or inhibitors of human DNA topoisomerases and were excluded from further studies. Thus, […] FDA approved drugs were selected for further testing. To further confirm the inhibitory effects of the lead compounds on BER, the effects of the compounds on BER reactions reconstituted with purified BER core enzymes were initially determined.

[2] = system: LAPC4 cells; assay: RTCA impedance proliferation assay, LAPC4; type: cell-based, human; settings: 10 μM; medium with both FBS and CSS
Method: (5A-5B) LNCaP cells were plated onto xCelligence E-plates at 10^4 cells per well in medium supplemented with either 10% FBS (5A) or 10% CSS (5B) serum. Cells attached overnight and were treated with vehicle (DMSO) or 10 μM of the indicated compounds. (5C-5D) LAPC4 cells were plated at 5×10^4 cells per well onto xCelligence E-plates in media supplemented with FBS (5C) or CSS (5D) and allowed to attach overnight. Treatment was conducted as in (5A-5B) and impedance measured continuously in 30 min intervals. […] Proliferation assays were done using Roche DP Real Time Cell Analyzer (RTCA), as described by the manufacturer. Background impedance was established after incubating E-plates (Acea Biosciences, San Diego, Calif.) with 50 μL media at room temperature for 30 min and placed in RTCA. Cells were then seeded in 100 μL per well. Cells attached overnight and then treated. During attachment stage and after treatment impedance was measured every 30 min. Impedance is represented by cell index and is calculated as follows: CI=(Zi−Zo)/15Ω where Zi is impedance at an individual time point, and Zo is the background impedance. Average CI was calculated from four wells per treatment at each time point and normalized to the impedance immediately after compound addition.

[3] = system: PNT1A cells; assay: RTCA impedance proliferation assay, PNT1A; type: cell-based; settings: 10 μM
Method: (6A-6B) PNT1A cells were plated onto xCelligence E-plates at 5×10^4 cells per well in media supplemented with 10% FBS (6A) or CSS (6B). Cells were allowed to attach overnight and treated with vehicle (DMSO) or 10 μM of indicated compounds. Cellular impedance was monitored continuously with 30 min intervals. (6C) RWPE1 cells were plated at 5×10^4 cells per well in serum free medium supplemented with Epidermal Growth Factor (EGF) and Bovine Pituitary Extract ([…]) onto E-plates and treated with 10 μM of indicated compounds as indicated. […] Background impedance was established after incubating E-plates (Acea Biosciences, San Diego, Calif.) with 50 μL media at room temperature for 30 min and placed in RTCA. Cells were then seeded in 100 μL per well. Cells attached overnight and then treated. During attachment stage and after treatment impedance was measured every 30 min. Impedance is represented by cell index and is calculated as follows: CI=(Zi−Zo)/15Ω where Zi is impedance at an individual time point, and Zo is the background impedance. Average CI was calculated from four wells per treatment at each time point and normalized to the impedance immediately after compound addition.

[4] = system: LNCaP cells; assay: MTT viability/toxicity assay, LNCaP; type: cell-based; settings: 48 h
Method: Cells were seeded in a 96 well plate at 1×10^4 cells/well and allowed to adhere overnight in the presence of FBS or CSS. The following day treatment was added to the wells and the plates were incubated for 24 h or 48 h. After incubation, 50 μL of MTT (2 mg/mL) was added to each well and incubated in the dark for 4 h. After incubation 150 μL of the media/MTT solution was removed and 100 μL of DMSO was added to each well and incubated for 15 min. Absorbance at 570 nm was measured using a ClarioStar Plate Reader (BMG LabTech, Ortenburg, Germany).

[5] = system: LAPC4 xenograft
Source text: Human prostate cancer cell line LAPC4 is used to implant into immunocompromised NOD scid male mice. Once tumor sizes reach 0.5 cm^3, the mice are separated into two groups. […] At the end of the 4-week treatment, mice are euthanized. Their tumors are excised and weighed. Tumors, samples of adjacent nonmalignant tissues, and prostates are collected for comparative analysis.
A portion of the tumor is used for RNA-Seq (RNA sequencing) analysis to reveal the presence and quantity of the entire set of RNA present in these cells.
These measurements are performed using a fluorescence-based in situ DNA damage and repair assay.

## C[C@@H]1C/C=C/C=C/C=C/C=C/[C@H](O[C@@H]2O[C@H](C)[C@@H](O)[C@H](N)[C@@H]2O)C[C@@H]2O[C@](O)(C[C@@H](O)C[C@H]3O[C@@H]3/C=C/C(=O)O1)C[C@H](O)[C@H]2C(=O)O [natamycin]
[1]
  BER capacity and production of the BER repair product: significantly reduced BER capacity
[2]
  LAPC4 cellular proliferation and attachment: abolished
[3]; 1 μM and 0.1 μM, both CSS and FBS medium
  PNT1A cell proliferation, concentration dependence: inhibited only with 10 μM
[3]; FBS and CSS media
  time of treatment at which effect on PNT1A proliferation became evident: 42 h
[3]; both FBS and CSS supplemented media
  PNT1A proliferation: proliferated in the presence of all inhibitors except natamycin
[4]; CSS medium
  concentration reducing viability of LNCaP cells: ≥ 0.1 µM
[4]; medium supplemented with FBS
  concentration required to reduce LNCaP viability: ≥ 2.5 µM
[5]; LAPC4 xenograft, intravenously, 4 weeks
  toxicity for prostate cancer cells in a mouse model: specific toxicity for prostate cancer cells
[5]; mouse, in vivo, iv
  tolerability by noncancerous tissues in a mouse model: well-tolerated
